Legend:
EGF receptor = EGF receptor (Homo sapiens, UniProt P00533); details: Seufferlein et al. 2002; cited from earlier work
caspase-3 = assay: Caspase-3 cleavage in SH-SY5Y cells; assay type: cell-based, human; details: SH-SY5Y cells in serum, 6 h
Source text: Detection of Caspase-3 cleavage. […] Lysates were collected as described above, and the 14/17 kD cleavage fragments of caspase-3 were detected via SDS-PAGE followed by immunoblotting with anti-cleaved caspase-3 antibody.

[1] = test system: SH-SY5Y, SHEP and Kelly neuroblastoma cells; assay: CyQUANT assay for neuroblastoma cell growth; assay type: cell-based, human
Method: CyQUANT assay for cell growth. Cells were plated on four 96-well tissue culture plates, in DMEM/10% calf serum at a density of 8000 cells/well and incubated for 24 h. In one set of experiments, the medium was switched to serum free DMEM supplemented with 1% bovine serum albumin (to provide osmotic support). IGF-I (10 nM) was added to some samples on a daily basis for up to 3 days. […] The media from one plate was immediately removed, and the plate was frozen at −80° C. This plate served as the baseline for the experiment. Single plates were frozen at 24, 48, and 72 h following addition of drugs. DNA content of each well was quantified by staining with CyQUANT according to the manufacturer's instructions and measuring CyQUANT […] with a fluorimeter. Each condition was run in triplicate, and the experiment was repeated three times.

MCNeuA tumor cells = assay: Growth of MCNeuA tumors in neuTg mice; assay type: in vivo, mouse; details: combined oral 100 mg/kg and i.p. 37.5 mg/kg groups, from 21 days post-implantation
Source text: All animal studies complied with protocols approved by of the Institutional Animal Care and Use Committee of the University of California, San Francisco. Our syngeneic model studies utilized the FVB/N-TgN(MMTVneu)202 mouse strain developed by Muller and colleagues (Guy CT, Webster MA, Schaller M, Parsons TJ, Cardiff RD, Muller WJ: Expression of the neu protooncogene in the mammary epithelium of transgenic mice induces metastatic disease. Proc Natl Acad Sci USA 89:10578-10582, 1992). This strain, denoted hereafter as neuTg, expresses the wild-type rat neu proto-oncogene (a homologue of human HER2) under the control of the mouse mammary tumor virus (MMTV) long terminal repeat (LTR) on an FVB mouse background. The MCNeuA mammary carcinoma cell line employed in these studies was derived from a spontaneously arising tumor in a neuTg female mouse (Campbell MJ, Wollish WS, Lobo […] LJ: Epithelial and fibroblast cell lines derived from a spontaneous mammary carcinoma in a MMTV/neu transgenic mouse. In Vitro Cell Dev Biol Anim 38:326-333, 2002). These cells are tumorigenic when transplanted back into neuTg mice. […] This solution was kept warm at 37° C. until given to mice by i.p. injection. […] Tumor growth was measured at the time of drug delivery on alternate treatment days with calipers and volume calculated using the equation: (length×width^2)*(π/6). […]

AKT/PKB = assay: Akt/PKB phosphorylation in MCF-7/HER2-18 cells (western blot); assay type: cell-based, human
Method: […]. Enzyme linked immunosorbent assays (ELISA) for phosphorylated IGF-1R and HER2 IGF-1R phosphorylation was determined by ELISA as described previously for the insulin receptor [Youngren JF, Goldfine ID and Pratley RE: Decreased muscle insulin receptor kinase con-elates with insulin resistance in normoglycemic Pima Indians. Am J Physiol 273: E276-83, 1997]. Briefly, 10 μg lysate protein were added to triplicate wells in a 96-well plate coated with monoclonal antibody to the IGF-IR (IR3; 2 μg/ml), and incubated for 18 hours at 4° C. Plates were washed five times and then HRP-conjugated anti-phosphotyrosine antibody (0.3 μg/ml), diluted in Solution B (50 mM HEPES, pH 7.6, 150 mM NaCl, 0.05% Tween-20, 1 mM PMSF, 2 mM vanadate and 1 mg/ml bacitracin), was added for two hours at 22° C. Plates were washed five times prior to color development with TMB substrate, which was terminated with 1.0 M H3PO4. Values for receptor phosphorylation were determined by measuring absorbance at 450 nm.
Total protein extracts (10 μg), prepared as described above from cells cultured in the presence or absence of IGF-1 and/or RTK inhibitors, were subjeccted to SDS-PAGE and subsequently transferred to nitrocellulose membranes. […] Membranes were washed again and bound antibodies detected by enhanced chemiluminescence (Pierce). […]

HER2 = molecular target: T1, HER2 (Homo sapiens, UniProt P04626); assay: HER2 phosphorylation ELISA in MCF-7/HER2-18 cells; assay type: cell-based; details: not stimulated
T1 construct: MCF-7 cells stably transfected with the full length HER2 cDNA (MCF-7/HER2-18); expressed in transfected cells; host or cells: MCF-7/HER2-18 (from Dr. Christopher Benz)
Method: RTK inhibitors were dissolved in DMSO and diluted with culture medium before being added to cells for 1.5 hour at 37° C. The final concentration of DMSO during the incubation was 0.3% . For some studies, cells were also stimulated with 3 nM IGF-I for 10 minutes at 37° C. Reactions were terminated by rapidly aspirating medium and washing cells three times with ice cold PBS. Cells were harvested and solubilized in 50 mM HEPES, 150 mM NaCl, 1% Triton X-100, 1 mM PMSF, and 2 mM vanadate for 1 hour at 4° C. Protein concentrations were determined by BCA assay (Pierce, Rockford, Ill.). […] Briefly, 10 μg lysate protein were added to triplicate wells in a 96-well plate coated with monoclonal antibody to the IGF-IR (IR3; 2 μg/ml), and incubated for 18 hours at 4° C. Plates were washed five times and then HRP-conjugated anti-phosphotyrosine antibody (0.3 μg/ml), diluted in Solution B (50 mM HEPES, pH 7.6, 150 mM NaCl, 0.05% Tween-20, 1 mM PMSF, 2 mM vanadate and 1 mg/ml bacitracin), was added for two hours at 22° C. Plates were washed five times prior to color development with TMB substrate, which was terminated with 1.0 M H3PO4. Values for receptor phosphorylation were determined by measuring absorbance at 450 nm.
HER2 phosphorylation was also determined by ELISA as above, using 2 μg of lysate protein per well and 2 μg/ml Herceptin as the capturing antibody.

[2] = molecular target: T2, IGF-1R kinase domain peptide (Homo sapiens, UniProt P08069); assay: IGF-1R kinase domain peptide autophosphorylation (western blot); assay type: biochemical; details: peptide incubated with NDGA prior to 20 μM ATP
T2 construct: purchased Upstate, USA (Charlottesville, Va.)
Method: ATP was then added at a final concentration of 20 μM. Autophosphorylation of peptide was allowed to occur for 20 min at 22° C. The reaction was stopped by the addition of SDS-reducing buffer, and the samples were run on SDS-PAGE. Following transfer to nitrocellulose membrane, peptide autophosphorylation was determined by western blotting employing an antibody against phosphotyrosine diluted to 0.5 μg/ml in phosphate buffered saline (PBS) containing 3% milk. The membrane was incubated with the antibody overnight at 4 C. Next, blots were washed 3 times with PBS, then incubated with HRP conjugated sheep anti-rabbit IgG (Amersham, Piscataway, N.J.) diluted 1:50,000 in PBS with 3% milk for 90 minutes at room temperature. After washing, blots were incubated with Super-Signal (Pierce, Rockford, Ill.), and exposed to film. Values were determined by scanning densitometry.

T1 sequence (P04626 23-1255): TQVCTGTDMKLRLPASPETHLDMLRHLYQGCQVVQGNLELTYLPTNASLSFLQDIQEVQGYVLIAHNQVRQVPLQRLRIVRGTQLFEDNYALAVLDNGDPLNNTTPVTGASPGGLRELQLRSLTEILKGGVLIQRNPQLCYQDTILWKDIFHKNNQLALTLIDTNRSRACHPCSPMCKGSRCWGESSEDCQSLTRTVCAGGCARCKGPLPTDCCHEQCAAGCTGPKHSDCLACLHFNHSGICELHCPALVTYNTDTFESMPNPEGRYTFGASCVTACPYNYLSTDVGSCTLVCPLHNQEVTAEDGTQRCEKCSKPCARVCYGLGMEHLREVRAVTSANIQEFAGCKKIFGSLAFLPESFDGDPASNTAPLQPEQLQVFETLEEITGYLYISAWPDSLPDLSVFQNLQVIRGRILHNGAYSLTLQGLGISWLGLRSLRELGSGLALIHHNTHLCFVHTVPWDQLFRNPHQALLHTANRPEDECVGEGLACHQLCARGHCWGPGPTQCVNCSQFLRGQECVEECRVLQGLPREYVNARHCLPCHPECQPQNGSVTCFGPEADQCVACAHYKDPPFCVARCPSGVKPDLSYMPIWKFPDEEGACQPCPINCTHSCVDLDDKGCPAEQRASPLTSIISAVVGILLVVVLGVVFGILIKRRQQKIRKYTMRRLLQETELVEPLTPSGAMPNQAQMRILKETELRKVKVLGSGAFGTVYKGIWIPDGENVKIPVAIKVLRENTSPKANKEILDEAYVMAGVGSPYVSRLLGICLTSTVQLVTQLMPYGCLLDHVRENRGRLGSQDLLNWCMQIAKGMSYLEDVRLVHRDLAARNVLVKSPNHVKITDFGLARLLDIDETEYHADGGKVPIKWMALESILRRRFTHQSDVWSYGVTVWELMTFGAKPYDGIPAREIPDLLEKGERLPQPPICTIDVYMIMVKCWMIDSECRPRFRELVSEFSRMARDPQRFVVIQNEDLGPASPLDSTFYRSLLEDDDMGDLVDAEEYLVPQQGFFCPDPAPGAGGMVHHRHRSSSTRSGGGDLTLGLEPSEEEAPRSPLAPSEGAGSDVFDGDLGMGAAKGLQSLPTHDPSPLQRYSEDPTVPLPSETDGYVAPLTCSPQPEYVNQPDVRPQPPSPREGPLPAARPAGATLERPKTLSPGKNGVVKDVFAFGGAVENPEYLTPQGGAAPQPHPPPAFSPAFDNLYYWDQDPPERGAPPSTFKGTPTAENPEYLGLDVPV
T2 sequence (P08069 989-1367): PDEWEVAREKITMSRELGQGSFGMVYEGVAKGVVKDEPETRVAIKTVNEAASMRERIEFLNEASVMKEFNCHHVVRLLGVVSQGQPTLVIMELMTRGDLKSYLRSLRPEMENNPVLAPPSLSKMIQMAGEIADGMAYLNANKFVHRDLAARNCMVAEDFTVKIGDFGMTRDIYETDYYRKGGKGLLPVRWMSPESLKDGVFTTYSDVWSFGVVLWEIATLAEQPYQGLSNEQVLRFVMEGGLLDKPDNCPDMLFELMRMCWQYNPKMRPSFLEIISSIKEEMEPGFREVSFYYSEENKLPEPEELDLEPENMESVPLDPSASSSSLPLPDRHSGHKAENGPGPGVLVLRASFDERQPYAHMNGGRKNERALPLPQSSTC
EGF receptor, sequence (P00533 25-1210): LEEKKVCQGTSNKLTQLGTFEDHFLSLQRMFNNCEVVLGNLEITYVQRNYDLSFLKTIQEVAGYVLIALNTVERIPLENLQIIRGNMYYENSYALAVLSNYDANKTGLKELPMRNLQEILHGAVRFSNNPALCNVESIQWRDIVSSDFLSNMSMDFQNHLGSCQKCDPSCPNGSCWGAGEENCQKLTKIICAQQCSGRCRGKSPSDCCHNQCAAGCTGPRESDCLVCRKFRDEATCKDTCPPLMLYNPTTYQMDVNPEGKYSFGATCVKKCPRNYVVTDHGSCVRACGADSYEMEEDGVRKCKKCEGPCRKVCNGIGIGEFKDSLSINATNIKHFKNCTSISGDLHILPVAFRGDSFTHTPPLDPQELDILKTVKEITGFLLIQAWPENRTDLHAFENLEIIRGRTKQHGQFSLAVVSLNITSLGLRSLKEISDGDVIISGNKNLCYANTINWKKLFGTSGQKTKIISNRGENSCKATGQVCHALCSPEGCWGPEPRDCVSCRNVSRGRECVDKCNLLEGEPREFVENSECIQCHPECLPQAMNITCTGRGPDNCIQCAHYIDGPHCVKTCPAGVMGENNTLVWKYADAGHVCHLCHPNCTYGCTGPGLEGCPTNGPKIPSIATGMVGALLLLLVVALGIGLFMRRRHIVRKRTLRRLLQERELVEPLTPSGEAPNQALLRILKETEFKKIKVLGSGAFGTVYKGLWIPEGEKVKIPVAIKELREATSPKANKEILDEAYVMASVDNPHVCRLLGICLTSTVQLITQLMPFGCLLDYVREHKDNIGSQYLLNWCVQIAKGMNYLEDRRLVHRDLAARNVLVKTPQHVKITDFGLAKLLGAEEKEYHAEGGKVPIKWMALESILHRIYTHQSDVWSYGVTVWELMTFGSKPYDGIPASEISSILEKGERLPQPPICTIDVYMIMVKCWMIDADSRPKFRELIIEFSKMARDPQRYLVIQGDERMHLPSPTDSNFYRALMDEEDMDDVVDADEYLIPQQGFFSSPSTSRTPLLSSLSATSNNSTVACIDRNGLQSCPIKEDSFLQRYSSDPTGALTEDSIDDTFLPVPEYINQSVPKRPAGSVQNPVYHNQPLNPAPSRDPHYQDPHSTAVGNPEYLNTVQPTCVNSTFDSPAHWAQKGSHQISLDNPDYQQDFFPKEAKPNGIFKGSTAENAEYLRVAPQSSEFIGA

SMILES: CC(Cc1ccc(O)c(O)c1)C(C)Cc1ccc(O)c(O)c1 (centres unmarked) [NDGA, nordihydroguaiaretic acid]
- EGF receptor phosphorylation (EGF receptor): no affect
- caspase-3 activation (caspase-3): dose-dependent caspase-3 activation
- proliferation in serum-free media with 10 nM IGF-I ([1]; SH-SY5Y and Kelly cells, up to 72 h): inhibited proliferation
- proliferation in medium containing 10% serum ([1]; SH-SY5Y and SHEP cells, up to 72 h): inhibited the proliferation
- dose that completely blocks neuroblastoma growth in vitro ([1]; serum and serum-free conditions, several days): 15 to 30 µM
- tumor growth (MCNeuA tumor cells): significantly reduced
- IGF-1 stimulated phosphorylation of AKT/PKB (AKT/PKB; 3 nM IGF-1): inhibited
- level of phospho-AKT/PKB (AKT/PKB; absence of IGF-1): decreased
- HER2 phosphorylation (HER2): strongly inhibited
- IC50 (HER2; read-out: half maximal effect on HER2 phosphorylation): ~30 µM
- concentration at which activation of the IGF-1R kinase domain was inhibited [2]: 1 µM

From US8143226B2, “Tyrosine kinase receptor antagonists and methods of treatment for breast cancer” (The Regents of the University of California, priority 2005, dated 2012)
